{
  "source": "the NIST ThermoML archive (doi:10.1016/j.jct.2005.05.020)",
  "details": "101.33 kPa, Liquid",
  "note": "± gives the expanded uncertainty stated by the source.",
  "data": [
    {"smiles": "CCCCCCC", "note": "[heptane]", "values": [
      {"measurement": "mass density", "setting": "273.15 K", "value": "700.67 ± 0.62", "unit": "kg/m3"},
      {"measurement": "mass density", "setting": "278.15 K", "value": "696.57 ± 0.62", "unit": "kg/m3"},
      {"measurement": "mass density", "setting": "283.15 K", "value": "692.4 ± 0.63", "unit": "kg/m3"},
      {"measurement": "mass density", "setting": "288.15 K", "value": "688.2 ± 0.64", "unit": "kg/m3"},
      {"measurement": "mass density", "setting": "293.15 K", "value": "683.99 ± 0.64", "unit": "kg/m3"},
      {"measurement": "mass density", "setting": "298.15 K", "value": "679.75 ± 0.65", "unit": "kg/m3"},
      {"measurement": "mass density", "setting": "303.15 K", "value": "675.49 ± 0.66", "unit": "kg/m3"},
      {"measurement": "mass density", "setting": "308.15 K", "value": "671.19 ± 0.66", "unit": "kg/m3"},
      {"measurement": "mass density", "setting": "313.15 K", "value": "666.87 ± 0.67", "unit": "kg/m3"},
      {"measurement": "mass density", "setting": "318.15 K", "value": "662.52 ± 0.68", "unit": "kg/m3"},
      {"measurement": "mass density", "setting": "323.15 K", "value": "658.13 ± 0.68", "unit": "kg/m3"},
      {"measurement": "mass density", "setting": "328.15 K", "value": "653.71 ± 0.69", "unit": "kg/m3"},
      {"measurement": "mass density", "setting": "333.15 K", "value": "649.24 ± 0.7", "unit": "kg/m3"},
      {"measurement": "mass density", "setting": "338.15 K", "value": "644.74 ± 0.71", "unit": "kg/m3"},
      {"measurement": "mass density", "setting": "343.15 K", "value": "640.19 ± 0.71", "unit": "kg/m3"},
      {"measurement": "mass density", "setting": "348.15 K", "value": "635.6 ± 0.72", "unit": "kg/m3"},
      {"measurement": "mass density", "setting": "353.15 K", "value": "630.95 ± 0.73", "unit": "kg/m3"},
      {"measurement": "mass density", "setting": "358.15 K", "value": "626.26 ± 0.74", "unit": "kg/m3"}
    ]},
    {"smiles": "CCCCCC", "note": "[hexane]", "values": [
      {"measurement": "mass density", "setting": "273.15 K", "value": "677.18 ± 0.66", "unit": "kg/m3"},
      {"measurement": "mass density", "setting": "278.15 K", "value": "672.79 ± 0.67", "unit": "kg/m3"},
      {"measurement": "mass density", "setting": "283.15 K", "value": "668.37 ± 0.67", "unit": "kg/m3"},
      {"measurement": "mass density", "setting": "288.15 K", "value": "663.91 ± 0.68", "unit": "kg/m3"},
      {"measurement": "mass density", "setting": "293.15 K", "value": "659.42 ± 0.69", "unit": "kg/m3"},
      {"measurement": "mass density", "setting": "298.15 K", "value": "654.89 ± 0.69", "unit": "kg/m3"},
      {"measurement": "mass density", "setting": "303.15 K", "value": "650.33 ± 0.7", "unit": "kg/m3"},
      {"measurement": "mass density", "setting": "308.15 K", "value": "645.73 ± 0.71", "unit": "kg/m3"},
      {"measurement": "mass density", "setting": "313.15 K", "value": "641.08 ± 0.72", "unit": "kg/m3"},
      {"measurement": "mass density", "setting": "318.15 K", "value": "636.38 ± 0.72", "unit": "kg/m3"},
      {"measurement": "mass density", "setting": "323.15 K", "value": "631.64 ± 0.73", "unit": "kg/m3"},
      {"measurement": "mass density", "setting": "328.15 K", "value": "626.84 ± 0.74", "unit": "kg/m3"},
      {"measurement": "mass density", "setting": "333.15 K", "value": "621.99 ± 0.75", "unit": "kg/m3"},
      {"measurement": "mass density", "setting": "338.15 K", "value": "617.07 ± 0.75", "unit": "kg/m3"}
    ]},
    {"smiles": "CCCCC", "note": "[pentane]", "values": [
      {"measurement": "mass density", "setting": "273.15 K", "value": "645.5 ± 0.72", "unit": "kg/m3"},
      {"measurement": "mass density", "setting": "278.15 K", "value": "640.7 ± 0.72", "unit": "kg/m3"},
      {"measurement": "mass density", "setting": "283.15 K", "value": "635.9 ± 0.73", "unit": "kg/m3"},
      {"measurement": "mass density", "setting": "288.15 K", "value": "631.04 ± 0.74", "unit": "kg/m3"},
      {"measurement": "mass density", "setting": "293.15 K", "value": "626.12 ± 0.74", "unit": "kg/m3"},
      {"measurement": "mass density", "setting": "298.15 K", "value": "621.14 ± 0.75", "unit": "kg/m3"},
      {"measurement": "mass density", "setting": "303.15 K", "value": "616.11 ± 0.76", "unit": "kg/m3"},
      {"measurement": "mass density", "setting": "308.15 K", "value": "611.01 ± 0.77", "unit": "kg/m3"}
    ]}
  ]
}
